Measurements from patent US12025619B2, “Methods and systems for detecting prostaglandins by LC-MS/MS” (Laboratory Corporation of America Holdings, priority 2020, dated 2024).
Several values for one entry are separate records, joined by “and”; a condition that tells them apart may be missing. Equal values may be shown once.

Tests used:
[1] = Autosampler stability, urine assay; type: physicochemical; conditions: human urine assay, stored refrigerated for up to 3 days and 8 hours
Method: Autosampler stability. […] To validate autosampler stability a batch containing two sets of calibrators and QCs was processed as normal. After completion of assay processing the first set of calibrators, QCs, and normal urines was injected and analyzed. After analysis the assay batch was stored refrigerated in the autosampler prior to reinjection of the first set of samples and first time injection of the second set of calibrators and QCs. The 96-well plates containing the processed assay were stored refrigerated in the autosampler for approximately 3 days, 8 hours, and 36 minutes before injection was completed for all samples. Post-storage recoveries were based on target concentrations for the stored, first time injection samples. Reinjected samples were compared to initial injection results to determine recoveries. Autosampler study results met acceptance criteria. […] Assay batches stored refrigerated for up to 3 days and 8 hours were stable and suitable for first time injection or re-injection to determine Prostaglandin D2 concentrations in human urine.

[2] = Calibrator freeze/thaw stability; type: physicochemical; conditions: for replicates within 85-115% of the target: calibrator matrix
Method: Calibrator freeze/thaw stability. Calibrator freeze/thaw stability was examined by analyzing using an accuracy sample made in calibrator amatrix (A4 at 250 pg/mL). The accuracy sample underwent up to 6 freeze/thaw cycles prior to stability testing. Freeze/thaw cycles were performed as per Example 3. Times and temperatures were recorded on the incubation study stability forms. All testing was performed in triplicate. The target concentration for the accuracy sample was used to define acceptable ranges for measured concentrations after freeze/thaw cycles. For the first five freeze/thaw cycles, 100% of replicates were within 85-115% of the target (TABLE 15). For the sixth freeze/thaw cycle >60% of replicates were within 85-115% of the target (TABLE 15). […] Prostaglandin D2 is stable in calibrator matrix after 5 freeze/thaw cycles (6 total thaws).

[3] = tested on: human ovarian tumor cell; conditions: read-out: IC50, inhibition of human ovarian tumor cell proliferation; cited from earlier work
[4] = Short-term and freeze/thaw stability of PGD2 in urine; type: physicochemical, human
Method: Urine samples were collected into plastic containers. Specimens were stored according to the following conditions: • Short Term Storage • Urine Frozen (≤−10° C. and ≤−55° C.): 8 days • Urine Refrigerated (2-8° C.): 3 days • Urine Room Temperature (15-30° C.): 3 days • Urine Freeze/Thaw (≤−10° C.): 6 Cycles • Long Term Storage • Urine Frozen (≤−10° C.): Stability testing in process • Shipping Conditions: • Urine Frozen (≤−10° C.):—on dry ice PGD2 was stable for at least 3 days at 4° C. and at room temperature and 8 days frozen (≤−10° C. or ≤−55° C.). PGD2 was stable for at least 6 freeze-thaw cycles (≤−10° C. or ≤−55° C.). [table]

[5] = Short-term and freeze/thaw stability in human serum; type: physicochemical; conditions: for Mean concentration at stability time point / Measured Concentration (replicates): Donors 1-3; for Measured Concentration (replicates): human serum
Method: Serum samples were collected into red top tubes and frozen immediately. Specimens were stored according to the following conditions: • Short Term Storage • Serum Frozen (≤−10° C. and ≤−55° C.): 7 days • Serum Refrigerated (2-8° C.): Strictly frozen storage.
Short-term and freeze/thaw stability. Sample stability was confirmed by testing human serum from three individual donors that was stored at each of the different conditions likely to be encountered in sample handling and laboratory analysis. […] An additional set of the freshly collected serum underwent up to 6 freeze/thaw cycles prior to stability testing. All serum stability samples and baseline stored samples were tested with freshly prepared calibrators. All testing was performed in triplicate.

[6] = Autosampler stability, serum assay; type: physicochemical; conditions: human serum assay, stored refrigerated for up to 3 days and 22 hours
Method: Autosampler stability. […] To validate autosampler stability a batch containing two sets of calibrators and QCs was processed as normal. After completion of assay processing the first set of calibrators and QCs was injected and analyzed. After analysis the assay batch was stored refrigerated in the autosampler prior to reinjection of the first set of samples and first time injection of the second set of calibrators and QCs. The 96-well plates containing the processed assay were stored refrigerated in the autosampler for approximately 3 days, 22 hours, and 16 minutes before injection was completed for all samples. Post-storage recoveries were based on target concentrations for the stored, first time injection samples. Reinjected samples were compared to initial injection results to determine recoveries. Autosampler study results met acceptance criteria. Assay batches stored refrigerated for up to 3 days and 22 hours are stable and suitable for first time injection or re-injection to determine Prostaglandin D2 concentrations in human serum.

[7] = Freeze/Thaw (<−10° C.), 1 Cycle (2 Thaws)
[8] = Freeze/Thaw (<−10° C.), 2 Cycles (3 Thaws)
[9] = Refrigerated (2-8° C.), 3.5 Hours

In the case of `CCCCC[C@H](O)/C=C/[C@H]1C(=O)C[C@H](O)[C@@H]1C/C=C\CCCC(=O)O` [PGD2, prostaglandin D2], the “Autosampler stability of processed assay batches” value [1] is reported as “stable”, the “stable in calibrator matrix after (freeze/thaw cycles)” value ([2]; accuracy sample A4 at 250 pg/mL) is reported as 5 freeze/thaw cycles and the “replicates within 85-115% of the target” value ([2]; first five freeze/thaw cycles) is reported as 100%. For the same molecule, the “replicates within 85-115% of the target” value ([2]; sixth freeze/thaw cycle) was greater than 60%, the IC50 [3] was 6.8 µM and the “stable for at least (time)” value ([4]; 4° C.) was “at least 3 days”. The “stable for at least (time)” value ([4]; frozen (≤−10° C. or ≤−55° C.)) was no less than 8 days, the “stable for at least (time)” value ([4]; room temperature) was “at least 3 days” and the “stable for at least (freeze-thaw cycles)” value ([4]; ≤−10° C. or ≤−55° C.) was “at least 6 freeze-thaw cycles”. For the same molecule, the “% of replicates within 85-115% of mean at baseline” value [5, 7] was 100.00%, the “% of replicates within 85-115% of mean at baseline” value [5, 8] was 77.78% and the “% of replicates within 85-115% of mean at baseline” value ([5]; Freeze/Thaw (<−10° C.), 3 Cycles (4 Thaws)) was 0.00%. The “% of replicates within 85-115% of mean at baseline” value ([5]; Freeze/Thaw (<−10° C.), 6 Cycles (7 Thaws)) was 0.00%, the “% of replicates within 85-115% of mean at baseline” value ([5]; Frozen (<−55° C.), 7 Days) was 100.00% and the “% of replicates within 85-115% of mean at baseline” value ([5]; Frozen (≤−10° C.), 7 Days) was 100.00%. For the same molecule, the “% of replicates within 85-115% of mean at baseline” value ([5]; Refrigerated (2-8° C.), 1 Day) was 0.00%, the “% of replicates within 85-115% of mean at baseline” value ([5]; Refrigerated (2-8° C.), 3 Days) was 0.00% and the “Mean concentration at stability time point” value (“Mean concentration” for short) ([5]; Refrigerated (2-8° C.), 3 Days) was 3.83 pg/mL and 4.93 pg/mL and 3.33 pg/mL. For the same molecule, the “% of replicates within 85-115% of mean at baseline” value [5, 9] was 88.89%, the “% of replicates within 85-115% of mean at baseline” value ([5]; Refrigerated (2-8° C.), 7 Hours) was 0.00% and the “% of replicates within 85-115% of mean at baseline” value ([5]; Room Temp (15-30° C.), 1 Day) was 0.00%. For the same molecule, the “Mean concentration” value ([5]; Room Temp (15-30° C.), 1 Day) was 6.95 pg/mL and 4.42 pg/mL and 4.22 pg/mL, the “% of replicates within 85-115% of mean at baseline” value ([5]; Room Temp (15-30° C.), 3 Days) was 0.00% and the “Mean concentration” value ([5]; Room Temp (15-30° C.), 3 Days) was 9.17 pg/mL and 6.27 pg/mL and 5.78 pg/mL. The “% of replicates within 85-115% of mean at baseline” value ([5]; Room Temp (15-30° C.), 3.5 Hours) was 0.00%, the “% of replicates within 85-115% of mean at baseline” value ([5]; Room Temp (15-30° C.), 7 Hours) was 0.00% and the “Short-term and freeze/thaw stability study result” value ([5]; frozen and refrigerated serum) was “did meet acceptance criteria”. For the same molecule, the “Measured Concentration (replicates)” value [5, 7] was 23.2 pg/mL and 95.8 pg/mL and 52.9 pg/mL and 21.1 pg/mL and 107 pg/mL (2×) and 52.4 pg/mL and 23.4 pg/mL and 60.5 pg/mL, the “Measured Concentration (replicates)” value [5, 8] was 22.1 pg/mL and 93.3 pg/mL and 19.4 pg/mL and 51.4 pg/mL and 19.7 pg/mL and 92.0 pg/mL and 51.2 pg/mL and the “Measured Concentration (replicates)” value ([5]; Frozen (<−55° C.), 7 Days) was 24.5 pg/mL (3×) and 119 pg/mL and 65.7 pg/mL and 121 pg/mL and 66.8 pg/mL and 122 pg/mL and 67.9 pg/mL. For the same molecule, the “Measured Concentration (replicates)” value ([5]; Frozen (≤−10° C.), 7 Days) was 23.3 pg/mL (2×) and 101 pg/mL and 53.8 pg/mL and 113 pg/mL (2×) and 57.9 pg/mL and 24.2 pg/mL and 62.3 pg/mL, the “Measured Concentration (replicates)” value [5, 9] was 103 pg/mL and 57.9 pg/mL and 20.9 pg/mL and 107 pg/mL and 57.6 pg/mL and 19.9 pg/mL and 93.5 pg/mL and 54.7 pg/mL and the “Measured Concentration (replicates)” value ([5]; day of collection, time 0) was 21.9 pg/mL and 104 pg/mL and 60.4 pg/mL and 22.0 pg/mL and 107 pg/mL and 59.1 pg/mL and 24.7 pg/mL and 111 pg/mL and 55.6 pg/mL. For the same molecule, the “Short-term stability study result” value ([5]; serum stored at room temperature) was “did not meet acceptance criteria” and the “Autosampler stability of processed assay batches” value [6] was “stable”.
